Experimental data from US9308238B2, “Compositions and methods for modulating EMT and uses thereof” (Whitehead Institute for Biomedical Research, priority 2010, dated 2016).

Columns and labels:
HMLE^24+ cells [1] = assay: RT-PCR / immunoblot of EMT markers and EMT-TFs in HMLE^24+ cells; format: cell-based, human
Method: (§1) FIGS. 5A-5H. Concomitant stimulation of Wnt and TGF-beta pathways allows HMLE^24+ cells to enter into a mesenchymal and SC-like state. (FIG. 5A) RT-PCR: N-Cadherin, Zeb1 and Zeb2, L32 was loading control, n=3. Prior RNA isolation, HMLE^24+-shGFP or -shSFRP1 (stable knockdown of SFRP1, FIG. 12A) cells were treated for 3 days with daily doses of indicated factors: anti-DKK1 antibody (10 μg/ml), anti-E-Cadherin antibody (1 μg/ml), TGF-beta 1 (5 ng/ml), Wnt5a (250 ng/ml), (FIG. 5B) Brightfield microscopy: images of control, TGF-beta- and iEMT-cocktail treated HMLE^24+ cells after 14 days of treatment as indicated (see also FIG. 12D). (FIG. 5C) RT-PCR: Zeb1, Zeb2, E-Cadherin and N-Cadherin, L32 was loading control, n=3. After 14 day treatment, cells were expanded in absence of further stimulation for 4 passages. […] (FIG. 5G) Lung metastasis: cells expanded for 8 passages after cessation of treatment as described in (C) were transformed with RAS; 1.0×10^5 cells were injected into the mammary fat pads of mice; GFP-labeled metastases on the surface of the lungs were quantified; *control vs. all other groups, p<0.05, n=5 mice/group. […]
Immunoblots. Protein was extracted with RIPA lysis buffer and concentration determined by the Lowry assay (Biorad). […]

HMLE^24+ cells [2] = assay: Flow cytometry of CD44/CD24, HMLE^24+ cells after 14 day treatment; format: cell-based, human; settings: control 0.2%
Method: as §1
Fluorescent activated cell sorting (FACS) and flow cytometry. […] Samples were sorted on a BD FACSAria SORP and analyzed on a BD LSRII using BD FACSDiva Software (BD Biosciences).

HMLE^24+ cells [3] = assay: Proliferation in adherent monolayer cultures after 14 day treatment; format: cell-based, human; settings: after cessation of 14 day treatment
Source text: FIGS. 12A-12F. Concomitant stimulation of Wnt and TGF-beta pathways allows HMLE^24+ cells to enter into a mesenchymal and SC-like state. (FIG. 12A) RT-PCR: SFRP1, L32 was loading control, n=3; SFRP1 mRNA levels in HMLE^24+ stably expressing two hairpin-encoding vectors (shSFRP1a and -b) compared cells expressing a control hairpin targeting GFP (shGFP), HMLE^24+-shSFRP1b were used for iEMT experiments. (FIG. 12B) Flow cytometry: Expression of CD44 and CD24 cell-surface markers in HMLE, HMLE^24+-shGFP and -shSFRP1 cells. […] (FIG. 12F) Growth curves: proliferation of indicated cell lines was monitored by the MTS assay for 3 days, 8 passages after cessation of 14 day treatment as described in (D), n=12.
Proliferation Assays. […] Cell viability was measured using CellTiter-Glo (Promega) according to the manufacturer's instructions.

[4] = tested on: RAS-transformed HMLE cells; assay: Lung metastasis of RAS-transformed treated HMLE cells from mammary fat pads; format: in vivo; settings: cells implanted into mammary fat pads of mice
Method: as §1
Animal studies. […] Lung surface metastases were counted using a fluorescent microscope within 3 hr of specimen isolation.

TGF-beta 1: recombinant TGF-beta 1 protein, used at 5 ng/ml
induction of N-Cadherin, Zeb1 or Zeb2 (HMLE^24+ cells [1]; 3 days treatment): did not result in a significant induction | E-/N-Cadherin expression (HMLE^24+ cells [1]; 14 day treatment, then expanded without stimulation): marginal upregulation of N-Cadherin | proportion of CD44high/CD24low-negative cells (HMLE^24+ cells [2]): 1.5% | proliferation rates in adherent monolayer cultures (HMLE^24+ cells [3]): stably lower | lung metastatic foci of RAS-transformed treated cells [4]: only weakly metastatic
